The values below come from US20210079015A1, “NOVEL DIHYDROISOXAZOLE COMPOUNDS AND THEIR USE FOR THE TREATMENT OF HEPATITIS B” (Novartis AG, priority 2017, published 2021).

Bounds are passed on as bounds.

The assay concerns HBV. The assay is described as follows: Anti-HBV assay (inhibition of HBV replication in HepG2.cl42 cells, HBV DNA by qPCR). It counts as cell-based, HBV ayw strain. The settings on record: Hepatitis B virus, 96 h, treated four days, HBV DNA quantified by real time PCR, read-out: HBsAg EC50.
The EC50 is the concentration that produces a half-maximal response. As to `C[C@H]1c2c(noc2-c2ccn(C)n2)CCN1C(=O)Nc1cc(F)c(F)c(F)c1` [Compound 34], the EC50 is not below 1000 nM. Consider `Cc1nc(-c2onc3c2[C@H](C)N(C(=O)Nc2cc(F)c(F)c(F)c2)CC3)c(C)o1` [Compound 40], for which the EC50 is not below 1000 nM.

As to `Cc1nc(-c2onc3c2[C@H](C)N(C(=O)Nc2cc(F)c(F)c(F)c2)CC3)co1` [Compound 36], the EC50 is not below 1000 nM. On to `C[C@H]1Cc2noc(N3CCC(CC(=O)O)C3=O)c2CN1C(=O)Nc1cc(F)c(F)c(F)c1` (stereo partly drawn) [Compound 63, 2-(1-((S)-6-methyl-5-((3,4,5-trifluorophenyl)carbamoyl)-4,5,6,7-tetrahydroisoxazolo[4,3-c]pyridin-3-yl)-2-oxopyrrolidin-3-yl)acetic acid], for which the EC50 was not below 1000 nM.

Regarding `O=C(Nc1cc(F)c(F)c(F)c1)N1CCc2noc(C3CCCCC3)c2C1` [Compound 2.1, 3-cyclohexyl-N-(3,4,5-trifluorophenyl)-6,7-dihydroisoxazolo[4,3-c]pyridine-5(4H)-carboxamide], the EC50 lay in the range of 100 to 1000 nM. Turning to `COc1ccc(-c2onc3c2CN(C(=O)Nc2cc(F)c(F)c(F)c2)[C@@H](C)C3)cc1` [Compound 9, (S)-3-(4-methoxyphenyl)-6-methyl-N-(3,4,5-trifluorophenyl)-6,7-dihydroisoxazolo[4,3-c]pyridine-5(4H)-carboxamide], the EC50 is less than 100 nM. On to `C[C@H]1Cc2noc(N3CCCC3=O)c2CN1C(=O)Nc1ccc(F)c(C#N)c1` [Compound 53, (S)—N-(3-cyano-4-fluorophenyl)-6-methyl-3-(2-oxopyrrolidin-1-yl)-6,7-dihydroisoxazolo[4,3-c]pyridine-5(4H)-carboxamide], for which the EC50 is less than 100 nM. Take `C[C@H]1Cc2noc(N3CCCC3=O)c2CN1C(=O)Nc1cc(F)c(F)c(F)c1` [Compound 8.1, (S)-6-methyl-3-(2-oxopyrrolidin-1-yl)-N-(3,4,5-trifluorophenyl)-6,7-dihydroisoxazolo[4,3-c]pyridine-5(4H)-carboxamide]: the EC50 is less than 100 nM. For `C[C@H]1Cc2noc(-c3cn(C)nn3)c2CN1C(=O)Nc1cc(F)c(F)c(F)c1` [Compound 37], the EC50 is 100 to 1000 nM. Consider `C[C@H]1c2c(noc2-c2cnn(C)c2)CCN1C(=O)Nc1cc(F)c(F)c(F)c1` [Compound 32], for which the EC50 was not below 1000 nM. To `C[C@H]1Cc2noc(N3CCCCC3=O)c2CN1C(=O)Nc1cc(F)c(F)c(F)c1` [Compound 46, (S)-6-methyl-3-(2-oxopiperidin-1-yl)-N-(3,4,5-trifluorophenyl)-6,7-dihydroisoxazolo[4,3-c]pyridine-5(4H)-carboxamide] belongs less than 100 nM; to `C[C@H]1Cc2noc(N3C(=O)CCC3=O)c2CN1C(=O)Nc1cc(F)c(F)c(F)c1` [Compound 60, (S)-3-(2,5-dioxopyrrolidin-1-yl)-6-methyl-N-(3,4,5-trifluorophenyl)-6,7-dihydroisoxazolo[4,3-c]pyridine-5(4H)-carboxamide], not below 1000 nM.

Consider `O=C(Nc1cc(F)c(F)c(F)c1)N1CCc2noc(N3CCOC3=O)c2C1` [Compound 5.2, 3-(2-oxooxazolidin-3-yl)-N-(3,4,5-trifluorophenyl)-6,7-dihydroisoxazolo[4,3-c]pyridine-5(4H)-carboxamide], for which the EC50 was 100 to 1000 nM. As to `C[C@H]1Cc2noc(N3CCCCC3=O)c2CN1C(=O)Nc1ccc(C#N)c(F)c1` [Compound 47, (S)—N-(4-cyano-3-fluorophenyl)-6-methyl-3-(2-oxopiperidin-1-yl)-6,7-dihydroisoxazolo[4,3-c]pyridine-5(4H)-carboxamide], the EC50 was 100 to 1000 nM.

Regarding `Cc1cc(-c2onc3c2CN(C(=O)Nc2cc(F)c(F)c(F)c2)[C@@H](C)C3)no1` [Compound 25, (S)-6-methyl-3-(5-methylisoxazol-3-yl)-N-(3,4,5-trifluorophenyl)-6,7-dihydroisoxazolo[4,3-c]pyridine-5(4H)-carboxamide], the EC50 lay within 100 to 1000 nM.

On to `C[C@H]1Cc2noc(N3CCCCC3=O)c2CN1C(=O)Nc1ccccc1` [Compound 54, (S)-6-methyl-3-(2-oxopiperidin-1-yl)-N-phenyl-6,7-dihydroisoxazolo[4,3-c]pyridine-5(4H)-carboxamide], for which the concentration giving a half-maximal response (EC50) was 100 to 1000 nM.

As to `CC1CCN(c2onc3c2CN(C(=O)Nc2cc(F)c(F)c(F)c2)[C@@H](C)C3)C1=O` (stereo partly drawn) [Compound 56, (6S)-6-methyl-3-(3-methyl-2-oxopyrrolidin-1-yl)-N-(3,4,5-trifluorophenyl)-6,7-dihydroisoxazolo[4,3-c]pyridine-5(4H)-carboxamide], the EC50 was less than 100 nM. To `C[C@H]1Cc2noc(N3CCOC3=O)c2CN1C(=O)Nc1cc(F)c(F)c(F)c1` [Compound 55, (S)-6-methyl-3-(2-oxooxazolidin-3-yl)-N-(3,4,5-trifluorophenyl)-6,7-dihydroisoxazolo[4,3-c]pyridine-5(4H)-carboxamide] belongs 100 to 1000 nM. On to `C[C@H]1Cc2noc(-c3cccc(C#N)c3)c2CN1C(=O)Nc1cc(F)c(F)c(F)c1` [Compound 14], for which the EC50 was 100 to 1000 nM. To `COc1cccc(-c2onc3c2CN(C(=O)Nc2cc(F)c(F)c(F)c2)[C@@H](C)C3)c1` [Compound 20] belongs 100 to 1000 nM; to `C[C@H]1Cc2noc(-c3ccccc3Cl)c2CN1C(=O)Nc1cc(F)c(F)c(F)c1` [Compound 12], 100 to 1000 nM. With `COC[C@@H]1CN(c2onc3c2CN(C(=O)Nc2cc(F)c(F)c(F)c2)[C@@H](C)C3)C(=O)O1` [Compound 61, (S)-3-((S)-5-(methoxymethyl)-2-oxooxazolidin-3-yl)-6-methyl-N-(3,4,5-trifluorophenyl)-6,7-dihydroisoxazolo[4,3-c]pyridine-5(4H)-carboxamide], the EC50 was in the range of 100 to 1000 nM. The value for `O=C(Nc1cc(F)c(F)c(F)c1)N1CCc2noc(N3CCCC3=O)c2C1` [Compound 5.1, 3-(2-oxopyrrolidin-1-yl)-N-(3,4,5-trifluorophenyl)-6,7-dihydroisoxazolo[4,3-c]pyridine-5(4H)-carboxamide] was 100 to 1000 nM; that for `O=C(Nc1cc(F)c(F)c(F)c1)N1CCc2onc(-c3ccc(F)cc3F)c2C1` [Compound 7.1, 3-(2,4-difluorophenyl)-N-(3,4,5-trifluorophenyl)-6,7-dihydroisoxazolo[4,5-c]pyridine-5(4H)-carboxamide] was 100 to 1000 nM. `C[C@H]1Cc2noc(-c3ccn(C)n3)c2CN1C(=O)Nc1cc(F)c(F)c(F)c1` [Compound 33]: the EC50 was less than 100 nM.

`O=C(Nc1cc(F)c(F)c(C(F)F)c1)N1CCc2noc(N3CCCOC3=O)c2C1` [Compound 45, N-(3-(difluoromethyl)-4,5-difluorophenyl)-3-(2-oxo-1,3-oxazinan-3-yl)-6,7-dihydroisoxazolo[4,3-c]pyridine-5(4H)-carboxamide]: the EC50 is less than 100 nM.

Consider `C[C@H]1Cc2noc(-c3cnn(C)c3)c2CN1C(=O)Nc1cc(F)c(F)c(F)c1` [Compound 31], for which the EC50 was 100 to 1000 nM. On to `CC1Cc2noc(-c3ccc(F)cc3F)c2CN1C(=O)Nc1cc(F)c(F)c(F)c1` (centres unmarked) [Compound 3.1, 3-(2,4-difluorophenyl)-6-methyl-N-(3,4,5-trifluorophenyl)-6,7-dihydroisoxazolo[4,3-c]pyridine-5(4H)-carboxamide], for which the EC50 was in the range of 100 to 1000 nM.

`C[C@H]1Cc2noc(-c3ccc(F)cc3F)c2CN1C(=O)Nc1cc(F)c(F)c(F)c1` [Compound 3.1-I, (S)-3-(2,4-difluorophenyl)-6-methyl-N-(3,4,5-trifluorophenyl)-6,7-dihydroisoxazolo[4,3-c]pyridine-5(4H)-carboxamide]: the EC50 was less than 100 nM. Turning to `C[C@H]1Cc2noc(N3CCCOC3=O)c2CN1C(=O)Nc1cc(F)c(F)c(C(F)F)c1` [Compound 51, (S)—N-(3-(difluoromethyl)-4,5-difluorophenyl)-6-methyl-3-(2-oxo-1,3-oxazinan-3-yl)-6,7-dihydroisoxazolo[4,3-c]pyridine-5(4H)-carboxamide], the EC50 was less than 100 nM. In the case of `Cc1cccc(-c2onc3c2CN(C(=O)Nc2cc(F)c(F)c(F)c2)[C@@H](C)C3)c1` [Compound 23], the EC50 was not below 1000 nM. On to `C[C@H]1Cc2noc(C3CCCC3)c2CN1C(=O)Nc1cc(F)c(F)c(F)c1` [Compound 43], for which the EC50 lay within 100 to 1000 nM.

Regarding `Cc1nc(-c2onc3c2CN(C(=O)Nc2cc(F)c(F)c(F)c2)[C@@H](C)C3)co1` [Compound 35], the EC50 lay in the range of 100 to 1000 nM. To `C[C@H]1Cc2noc(N3CCCOC3=O)c2CN1C(=O)Nc1cc(F)c(F)c(F)c1` [Compound 48, (S)-6-methyl-3-(2-oxo-1,3-oxazinan-3-yl)-N-(3,4,5-trifluorophenyl)-6,7-dihydroisoxazolo[4,3-c]pyridine-5(4H)-carboxamide] belongs less than 100 nM; to `C[C@H]1Cc2noc(-c3ccc(OC(F)F)cc3)c2CN1C(=O)Nc1cc(F)c(F)c(F)c1` [Compound 24], 100 to 1000 nM. `O=C(Nc1cc(F)c(F)c(F)c1)N1CCc2noc(-c3ccc(F)cc3F)c2C1` [Compound 1.1, 3-(2,4-difluorophenyl)-N-(3,4,5-trifluorophenyl)-6,7-dihydroisoxazolo[4,3-c]pyridine-5(4H)-carboxamide]: the EC50 lay in the range of 100 to 1000 nM. On to `C[C@H]1Cc2noc(N3CCCS3(=O)=O)c2CN1C(=O)Nc1cc(F)c(F)c(F)c1` [Compound 58, (S)-3-(1,1-dioxidoisothiazolidin-2-yl)-6-methyl-N-(3,4,5-trifluorophenyl)-6,7-dihydroisoxazolo[4,3-c]pyridine-5(4H)-carboxamide], for which the EC50 is less than 100 nM. To `C[C@H]1Cc2noc(-c3ccccc3F)c2CN1C(=O)Nc1cc(F)c(F)c(F)c1` [Compound 10] belongs 100 to 1000 nM. In the case of `C[C@H]1Cc2noc(N3CCOCC3)c2CN1C(=O)Nc1cc(F)c(F)c(F)c1` [Compound 59, (S)-6-methyl-3-morpholino-N-(3,4,5-trifluorophenyl)-6,7-dihydroisoxazolo[4,3-c]pyridine-5(4H)-carboxamide], the EC50 is not below 1000 nM. Turning to `C[C@H]1Cc2noc(-c3ccccc3)c2CN1C(=O)Nc1cc(F)c(F)c(F)c1` [Compound 15], the EC50 fell in the range of 100 to 1000 nM.

With `Cc1ccc(-c2onc3c2CN(C(=O)Nc2cc(F)c(F)c(F)c2)[C@@H](C)C3)cc1` [Compound 11], the EC50 lay in the range of 100 to 1000 nM.
